Experimental data published in US9511074B2, “Methods of treating disorders associated with protein polymerization” (UNIVERSITY OF PITTSBURGH—OF THE COMMONWEALTH SYSTEM OF …, priority 2009, dated 2016).

Key:
[1] = test system: BiP in the HTO/Z cell line; experiment: Steady state levels of BiP in the HTO/Z cell line (immunoblot); assay type: cell-based, human; conditions: FIG. 1D
Excerpt: Cell Lines The human epidermal HeLa cell line with doxycycline-regulated expression of ATZ (HTO/Z) has been described previously (1). HTO/M and HTO/Saar are HeLa cell lines with doxycycline-regulated expression of wild type AT and the AT Saar variant, respectively (1). A murine embryonic fibroblast cell line (MEF) with targeted disruption of Atg5 (2) was engineered for stable expression of ATZ using the previously described pRc/RSV-ATZ expression plasmid (3). A wild type MEF cell line was also engineered for stable expression of ATZ in the same way to serve as control. For experiments with CBZ, the inducible cell lines were cultured in the absence of doxycycline for at least 4 weeks for maximal expression of AT. The cells were then subcultured into separate monolayers in fresh complete growth medium and incubated for 48 hours in the absence or presence of CBZ or rapamycin (RAP). CBZ or RAP were added to the growth medium. The duration of incubation with CBZ was determined to be optimal at 48 hours based on experiments in which the duration was varied from 12 to 72 hours. Doses of CBZ were based on previous studies of its effects in cell lines (5,6). […]
For immunoblot analysis to detect AT, GAPDH or LC3, cells were lysed in 50 mM Tris-HCl, 150 mM NaCl, 1% NP-40, pH 8.0. Protein levels were quantified using the BCA protein assay (Pierce Biotechnology, Rockford, Ill.). […]

[2] = test system: ATZ in the HTO/Z cell line; experiment: Pulse labeling and pulse-chase labeling of ATZ in the HTO/Z line; assay type: cell-based, human
Protocol: Radioimmunoprecipitation, SDS-PAGE and Immunoblot Analysis Biosynthetic labeling, pulse-chase labeling, immunoprecipitation and SDS-PAGE/fluorography for AT followed previously published protocols (1). […] For the pulse labeling experiments, HTO/Z cells were incubated for 48 hours in the absence or presence of CBZ in several different concentrations and then subjected to labeling for 30 mins. The cell lysates were then examined by immunoprecipitation and the immunoprecipitates analyzed by SDS-PAGE/fluorography. For the pulse-chase experiments, HTO/Z cells were incubated for 48 hours in the absence of presence of CBZ 30 μM and then pulse labeled for 30 mins. The cells were then washed and incubated in growth medium without tracer for several different time intervals to constitute the chase. CBZ 30 μM was included during the pulse and chase periods. The extracellular fluid and cell lysate samples were subjected to immunoprecipitation and the immunoprecipitates analyzed by SDS-PAGE/fluorography. All fluorograms were subjected to densitometry. The relative densitometric value of T0 is set at 100% and the remainder of the data set expressed as % of this control. The data are shown as mean+/−SE and the mean value at each time point is shown at the bottom of the figure.

[3] = test system: LC3; experiment: LC3 conversion in the HTO/Z cell line by immunoblot; assay type: cell-based, human; conditions: with or without lysosomal enzyme inhibitors
Protocol: For experiments in which proteasomal inhibitors were used, MG132 was used at 30 μM and lactacystin at 10 μM for the last 6 hours of the incubation with CBZ or control. Cells that were incubated with MG132 or lactacystin alone served as control to validate that the proteasome was inhibited. For investigation of LC3 conversion, lysosomal inhibitors (E64D and pepstatin A at 20 μg/ml) were added to the medium for the last 4 hours of the incubation with CBZ or control. […] If the number of separate experiments done in the cell line models is not specifically indicated in the text or figure legend, at least 3 separate experiments were done in each case.
For immunoblot analysis to detect AT, GAPDH or LC3, cells were lysed in 50 mM Tris-HCl, 150 mM NaCl, 1% NP-40, pH 8.0. Protein levels were quantified using the BCA protein assay (Pierce Biotechnology, Rockford, Ill.). 10-50 μg samples were loaded onto 7.5% precast gels. PVDF membranes were blocked in TBS, 0.5% Tween 20 (TBST), 5% milk and then incubated with primary antibody in 5% milk TBST solution. Horseradish peroxidase anti-goat Ig or anti-mouse Ig (Jackson Labs, Bar Harbor, Me.) were used as secondary antibodies in TBST. Blots were visualized with Super Signal West Dura or West Femto from Pierce.

[4] = test system: smooth muscle actin, collagen IA and TGFβ mRNA; experiment: Stellate cell activation markers in liver of PiZ mice by Q-PCR; assay type: in vivo, mouse
Protocol: Quantitative PCR (Q-PCR) Levels of mRNA from smooth muscle actin, collagen IA and TGFβ in liver of PiZ mice were determined by Q-PCR using primers from ABI and previous described conditions (19).

[5] = test system: PiZ mice; experiment: Pulmonary fibrosis in PiZ mice (Sirius Red staining with quantitative morphometry); assay type: in vivo, mouse; conditions: 3-month-old PiZ mice, 200 mg/kg/day, 5 days per week for 3 weeks
Protocol: Experiments were performed to determine if CBZ can mediate a decrease in lung fibrosis in the PiZ mouse in vivo. 3-month-old PiZ mice were treated 5 days per week for 3 weeks with diluent DMSO or CBZ 200 mg/kg/day (n=3-8 mice per group). In this series of experiments lung fibrosis was assayed by Sirius Red staining with quantitative morphometry.

NC(=O)N1c2ccccc2C=Cc2ccccc21 [CBZ, 5H-dibenz [b,f]azepine-5-carboxamide]
BiP levels [1]: did not affect
total protein synthesis or secretion (radioactivity in TCA precipitates) ([2]; HTO/Z cells): did not show any effects
synthesis of ATZ ([2]; pulse labeling 30 mins after 48 hours CBZ): did not affect
secretion of ATZ ([2]; pulse-chase, CBZ 30 μM): could not be attributed to enhanced secretion
half-time of disappearance of ATZ from the intracellular compartment ([2]; pulse-chase, CBZ 30 μM, 200 min in untreated cells): 130 min
LC3-II to LC3-I ratio [3]: increased in a dose-dependent manner
collagen 1A level ([4]; not statistically significant): decreased
transforming growth factor b level ([4]; not statistically significant): decreased
smooth muscle actin level ([4]; reached statistical significance): decreased
Sirius red staining of lung (pulmonary fibrosis) [5]: statistically significant reduction
